In paper PMC7497692 (Investigational New Drugs, 2020):

Key:
[1] = system: P-glycoprotein; parameters: method as in earlier work; conditions: cited from earlier work
[2] = Oral PK of tepotinib and total radioactivity in plasma and blood (part A); type: in vivo, human healthy male volunteers; conditions: min–max, n=6
Protocol: (§1) Participants were hospitalized from day 1 to day 16 of the study, and further assessed on days 19, 22, and 25 (trial end). […] Pre-dose feces and urine samples were collected on day 1 and day 2, respectively. Urine was collected at 4- to 12-h intervals on day 1 and every 24 h thereafter up to day 16. Feces were collected every 24 h up to day 16. Provision was made to collect further samples up to day 39 if >1% of the administered dose was detectable in the total (urine and feces) excreta per day on two consecutive measurements.
In brief, the isotopically labeled internal standard [^2H]-MSC2156119A was added to 20 μL K2-ethylenediaminetetraacetic acid (EDTA) plasma. […] Samples were centrifuged and 10 μL aliquots of the supernatant were injected onto an Acquity Charged Surface Hybrid™ (CSH) C18 column (2.1 × 50 mm; […]; Waters, Milford, Massachusetts, USA). Separation was carried out using a mobile phase gradient (eluent A: water/formic acid [100 + 1, v/v]; eluent B: acetonitrile/formic acid [100 + 1, v/v]) with a flow rate of 0.6 mL/min. […] The lower limit of quantification (LLOQ) was 5.00 ng/mL, and the calibration standard responses were linear over the range between 5.00 and 2500 ng/mL using a weighted (1/x^2) linear regression.
Total radioactivity in blood, plasma, urine, and feces samples, and quick counts in urine and feces samples were determined at the bioanalytical laboratory of PRA (Assen, The Netherlands) using liquid scintillation counting (LSC). Scintillation cocktail Ultima Gold™ (5 mL; Perkin Elmar, Waltham, Massachusetts, USA) was directly spiked into 250 μL plasma and 1000 μL urine samples, respectively, whereas 300 μL aliquots of blood samples were solubilized and decolorized before adding 18 mL of the scintillation cocktail prior to LSC. Feces samples were (quantitatively) homogenized with one or two weight equivalents of water, and an accurately weighted aliquot of approximately 500 mg of the homogenate was dried at 50 °C for at least 3 h. […]
The maximum plasma concentration (Cmax) and time to reach maximum concentration (tmax) were derived directly from the plasma concentration–time data. […] The area under the plasma concentration–time curve from 0 to t (last measurable concentration; AUC0–t) was calculated using a mixed log–linear trapezoidal method. […] Amounts excreted in urine, feces, and total (urine + feces) were calculated as the sum of amounts (concentration multiplied by volume) for each collection from time 0 to time t. […] Total body clearance (CL) and apparent body clearance (CL/f) were determined by dose/AUC0–∞, and total volume of distribution (Vz) and apparent volume of distribution (Vz/f) were calculated by dose/(AUC0–∞*λz) after IV and oral administration, respectively. […]

[3] = Metabolite profiling and identification in plasma, urine and feces (part A); type: in vivo, human healthy male volunteers; conditions: oral part A
Protocol: as §1
Metabolite profiling and structure elucidation in plasma, urine, and feces were performed at the Institute of Drug Metabolism and Pharmacokinetics, Merck KGaA, Grafing, Germany, using a radiometric UPLC method coupled to a high-resolution MS. For urine and feces, metabolites were identified in a single pooled sample per matrix and subject (urine pool of 4–120 h and feces pool of 0–192 h), that covered at least 90% of the total radioactivity of the respective matrix excreted. Intervals with low radioactivity were not used for the generation of the pooled samples to avoid dilution, and to increase the signal-to-noise ratio of the respective chromatograms.
The metabolite structure elucidation was performed using the linear trap quadrupole Orbitrap XL hybrid Fourier transform (FT) MS (Thermo Scientific, Dreieich, Germany) coupled to a Waters Acquity UPLC system. Full-scan FT spectra were acquired for measurement of the masses of molecular ions of parent and metabolites. MS^2 fragmentation spectra were acquired after high-energy collisional dissociation of the appropriate molecular ions. Allocation and confirmation of the proposed metabolites to the radioactive peaks were performed using an API4000 QTrap (AB Sciex, Darmstadt, Germany) MS with simultaneous splitting using a fraction collection system (CTC HTS PAL Fraction Collector, Axel Semrau, Sprockhövel, Germany), and offline radioactive measurement using a Topcount NXT® microplate scintillation counter (PerkinElmer, Rodgau, Germany).
The maximum plasma concentration (Cmax) and time to reach maximum concentration (tmax) were derived directly from the plasma concentration–time data. Lag time (tlag) was the time prior to the first measurable (non-zero) concentration. The area under the plasma concentration–time curve from 0 to t (last measurable concentration; AUC0–t) was calculated using a mixed log–linear trapezoidal method. Area under the plasma concentration–time curve until the last sampling time (AUCall), which corresponds to AUC0–240 h within the observation period, was used for metabolite calculations. Amounts excreted in urine, feces, and total (urine + feces) were calculated as the sum of amounts (concentration multiplied by volume) for each collection from time 0 to time t. The terminal rate constant (λz) was used to estimate the terminal half-life (t½) (ln 2/λz), and the area under the concentration–time curve from time 0 to infinity (AUC0–∞). Total body clearance (CL) and apparent body clearance (CL/f) were determined by dose/AUC0–∞, and total volume of distribution (Vz) and apparent volume of distribution (Vz/f) were calculated by dose/(AUC0–∞*λz) after IV and oral administration, respectively. Volume of distribution of the central compartment (Vc) was derived by dividing the dose by the initial drug plasma concentration after IV administration. Absolute bioavailability was calculated as F = (AUCoral/doseoral)/(AUCIV/doseIV) × 100. The ratios (%) AUCtepotinib or metabolite/AUCtotal radioactivity were calculated as a percentage of the molar AUCs.

[4] = parameters: method as in PMID 23553846; conditions: xenograft mice; cited from earlier work
[5] = tepotinib in plasma, median, single oral 498 mg capsules

CN1CCC(COc2cnc(-c3cccc(Cn4nc(-c5cccc(C#N)c5)ccc4=O)c3)nc2)CC1 [Tepotinib]
P-glycoprotein substrate status [1]: substrate of the drug efflux transporter P-glycoprotein
t½ ([2]; tepotinib in plasma, geometric mean (geometric CV%), single oral 498 mg capsules): 33 h
tlag [2, 5]: 2 h
tmax [2, 5]: 9 h
tlag ([2]; total radioactivity in plasma, median, oral part A): 2.5 h
% of total radioactive administered dose excreted in feces or urine (excreta) ([3]; feces plus urine): 52%
% of total administered radioactive dose excreted in feces ([3]; feces pool 0–192 h): 45%
% of AUCall of total 14C-radioactivity in plasma ([3]; plasma, AUCall = AUC0–240 h, molar AUC ratio): 55%
% of total administered radioactive dose excreted in urine ([3]; urine pool 4–120 h): 7%
tumor versus plasma concentration [4]: higher concentrations in xenograft tumors than in the plasma of mice
